Laboratory results taken from patent US10532082B2, “SOCS1-derived peptide for use in chronic complications of diabetes” (Fundació Hospital Universitari Vall d'Hebron-Institut de …, priority 2014, dated 2020).
Where no end group is shown, it is not given here. [ ]: non-standard residue; d: D form. lysine‑palmitate = lysine-palmitate bound at the N-terminal end; pY = N[C@@H](Cc1ccc(OP(=O)(O)O)cc1)C(=O)O

How the values were obtained:
diabetic mice (db/db) [1] = assay: Electroretinogram (ERG) recordings, topical eye drops; type: in vivo; settings: eye drops 15 days
Description: (§1) 8-week old diabetic mice (db/db) received the miS1 peptide in the form of eye drops (5 μL drops in each eye; 10 mg/mL; twice a day for 15 days; n=7 mice). Diabetic mice treated with the non-functional peptide Mut (n=7), treated with vehicle and non-diabetic mice (db/+) were used as controls. The eye drops were directly administered on the upper surface of the cornea of each eye using a micropipette. The weight and glycemia (colorimetric assay) were controlled throughout the study period. On day 15, the drop with the miS1 peptide or vehicle was administered about two hours before autopsy. […]
Electroretinogram (ERG) recordings were performed in darkness-adapted anesthetized mice (12 hours overnight). Focal electroretinogram (Ferg) recordings were measured using a Micron III Focal ERG system (Phoenix Research Labs, Pleasanton, Calif.). […] The ERG responses of both eyes were recorded in response to 20 ms white light stimuli. […] The ERG signals were amplified, the filtered band was between 0.5 and 1000 Hz, and was analyzed with LabScribe-2 software (BioSeb, Vitrolles, France) in order to calculate the a-wave and b-wave amplitude and implicit time, as recommended by the International Society of Clinical Electrophysiology of Vision (ISCEV) (Marmor et al Doc Ophtalmol 108: 107 a 144). […]

diabetic mice (db/db) [2] = assay: Retinal glutamate metabolism (GLAST immunofluorescence, glutamate by UPLC); type: in vivo; settings: eye drops 15 days
Description: as §1
The glutamate metabolism was evaluated in order to investigate the mechanisms through which the miS1 peptide produces neuroprotection. The glutamate concentration was determined by means of ultra-high performance liquid chromatography (UPLC) (Acquity-UPLC, Waters) MassTrak amino acid system). The GLAST (Glutamate/Aspartate transporter) was evaluated by means of immunofluorescence.
The paraffin sections were deparaffinized in xylene and rehydrated in a gradual series of ethanol. […] The GLAST immunofluorescence was quantified by means of laser confocal microscopy (Olympus FluoView™ FV1000 confocal microscope, Hamburg, Germany) using the ImageJ software.

diabetic mice (db/db) [3] = assay: Retinal IL-1β mRNA expression by RT-PCR; type: in vivo; settings: eye drops 15 days, retina mRNA RT-PCR
Description: 8-week old diabetic mice (db/db) received the miS1 peptide in the form of eye drops (5 μL drops in each eye; 10 mg/mL; twice a day for 15 days; n=7 mice). Diabetic mice treated with the non-functional peptide Mut (n=7), treated with vehicle and non-diabetic mice (db/+) were used as controls. The eye drops were directly administered on the upper surface of the cornea of each eye using a micropipette. The weight and glycemia (colorimetric assay) were controlled throughout the study period. On day 15, the drop with the miS1 peptide or vehicle was administered about two hours before autopsy. The animals were euthanized by cervical dislocation and the enucleated eyes were immediately frozen and dorsoventral sections of […] were cut for analyzing retinal morphology and other immunohistochemical analyses.
The expression of IL-1β, TNF-α and IL-6 was evaluated. The total RNA was extracted with RNeasy Mini Kit with DNAse digestion (QIAGEN, distributed by IZASA, Barcelona, Spain) according to manufacturer's instructions. The RNA (1 μg) was used for reverse transcription with random hexanucleotide primers and Applied Biosystems reagents (Applied Biosystems, Madrid, Spain) in a reaction volume of 20 μl. […] The ΔΔCt method was used for obtaining the relative quantification (RQ).

diabetic mice (db/db) [4] = assay: Disruption of the blood-retinal barrier, albumin extravasation; type: in vivo; settings: eye drops 50 μg in 5 μL/eye twice a day, 15 days
Description: 8-week old diabetic mice (db/db) received the miS1 peptide in the form of eye drops (5 μL drops in each eye; 10 mg/mL; twice a day for 15 days; n=7 mice). Diabetic mice treated with vehicle (n=7) and non-diabetic mice (db/+) (n=7) were used as controls. The weight and glycemia (colorimetric assay) were controlled throughout the study period. The animals were euthanized on day 15 by cervical dislocation. The disruption of the BRB was evaluated by means of determining albumin permeability.
The paraffin sections were deparaffinized in xylene and rehydrated in a gradual series of ethanol. The sections were fixed in acidic methanol (−20° C.) for 1 minute and washed with 0.01 M PBS solution at pH 7.4. The sections were incubated in a blocking solution (2.5% dry, non-fat milk) for 30 minutes at room temperature. The sections were incubated with a goat anti-human serum albumin primary antibody (1:500, Abcam) overnight at 4° C. After one washing in PBS, the sections were incubated with an Alexa 594 donkey anti-goat secondary antibody (1:200, Molecular Probes) for 1 hour at room temperature. […] The immunofluorescence of albumin was analyzed by means of laser confocal microscopy (Olympus FluoView™ FV1000 confocal microscope, Hamburg, Germany).

STAT3 = STAT3 activation in cytokine-stimulated VSMC; type: cell-based, mouse; settings: IFNγ and IL-6 stimulation, immunofluorescence images
RAW264.7 macrophages = assay: Macrophage migration chemotaxis assay; type: cell-based, murine; settings: chemotaxis assays
Description: RAW264.7 macrophages and vascular smooth muscle cells (VSMC) cultured in a medium with 10% fetal bovine serum were used. The cells were synchronized (24 hours without serum), pre-incubated for 90 minutes with different peptide concentrations (miS1 or the control thereof, 50-150 μg/mL) and stimulated with cytokines (IFNγ […]). STAT activation was analyzed by means of Western blot for phosphorylated STAT1/STAT3 isoforms. JAK/STAT pathway-dependent chemokine (CCL2) expression was determined by means of ELISA. Cell viability was analyzed by MTT colorimetric assay and macrophage migration was analyzed by chemotaxis assay.

miS1: SEQ ID NO 1 DTHFRTFRSHSDYRRI, kinase inhibitory region of murine SOCS1, bound to lysine-palmitate at the N-terminal end, tyrosine phosphorylated ({lysine‑palmitate}-DTHFRTFRSHSD[pY]RRI)
ERG a-wave and b-wave implicit time (diabetic mice (db/db) [1]; diabetes-induced increase): declines | ERG a-wave and b-wave amplitude (diabetic mice (db/db) [1]; diabetes-induced reduction): declines the reduction | intraretinal glutamate levels (diabetic mice (db/db) [2]; UPLC): reduced but without reaching statistical significance | GLAST content in retina (diabetic mice (db/db) [2]; immunofluorescence): downregulation was prevented | IL-1β increase induced by diabetes (diabetic mice (db/db) [3]): prevented the increase | albumin extravasation (vascular permeability) (diabetic mice (db/db) [4]): prevented | STAT3 activation (STAT3): prevented | macrophage migration (RAW264.7 macrophages): anti-migratory effect
